Legend:
P‐gp = P‐gp (Homo sapiens, UniProt P08183); test: Transporter substrate determination, efflux ratio across Caco-2 cells (P-gp)
MATE1 = biological target: T1, MATE1 (Homo sapiens, UniProt Q96FL8); test: Transporter substrate determination, uptake in HEK293-MATE1 cells; type: in vitro ADME; conditions: for Maximum Ratio (uptake in transporter‐expressing cells to empty‐vector control cells): HEK293‐MATE1, 0.1, 1, 10 µM, threshold ≥2‐fold; for substrate of the transporter: MATE1
T1 construct: host or cells: HEK293
T1 sequence (Q96FL8 1-570): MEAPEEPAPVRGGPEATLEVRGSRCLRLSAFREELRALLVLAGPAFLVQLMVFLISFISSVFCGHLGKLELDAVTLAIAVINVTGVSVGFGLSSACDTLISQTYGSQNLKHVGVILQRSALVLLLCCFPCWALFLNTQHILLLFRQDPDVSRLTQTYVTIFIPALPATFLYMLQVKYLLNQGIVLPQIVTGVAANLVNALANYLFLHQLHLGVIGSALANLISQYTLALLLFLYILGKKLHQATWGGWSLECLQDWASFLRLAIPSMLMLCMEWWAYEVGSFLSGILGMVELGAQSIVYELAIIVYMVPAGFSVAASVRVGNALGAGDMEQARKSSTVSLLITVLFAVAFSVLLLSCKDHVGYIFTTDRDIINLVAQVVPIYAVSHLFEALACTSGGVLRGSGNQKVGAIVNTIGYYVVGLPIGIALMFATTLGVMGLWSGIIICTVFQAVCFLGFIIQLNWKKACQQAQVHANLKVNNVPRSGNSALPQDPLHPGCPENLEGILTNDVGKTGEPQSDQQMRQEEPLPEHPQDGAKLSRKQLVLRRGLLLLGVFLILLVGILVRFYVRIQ
Protocol: (§1) LC‐MS/MS analyses to assess metabolic stability and identify the transporter substrate were performed using an API 4000 QTRAP mass spectrometer (SCIEX, Framingham, MA) with electrospray ionization in positive mode. Chromatography was performed using an Atlantis dC18 analytical column (100 × 2.1 mm, 5 µm; Waters Corporation, Milford, MA). Mobile phases were 0.2% v/v formic acid in water and 0.2% v/v formic acid in acetonitrile. For metabolic stability experiments, FFA and metabolites were eluted at a flow rate of 0.6 mL/min, with a linear gradient of 20%−80% acetonitrile from 0.30−2.0 min. For transporter substrate experiments, the gradient was slightly modified to achieve suitable chromatography. The mass transitions monitored were 232.0 > 159.0 for FFA and 348.0 > 330.0 for 1ʹ‐OH‐midazolam‐d4 internal standard.
(§2) FFA and nFFA were evaluated as substrates of the transporters breast cancer resistance protein (BCRP), organic anion transporter (OAT)1, OAT3, organic cation transporter (OCT)2, MATE1, MATE2‐K, and P‐glycoprotein multidrug transporter (P‐gp; also known as MDR1 and ABCB1), according to published methods.[25], [26], [27], [28], [29] Madin‐Darby canine kidney (MDCKII)‐BCRP cells (Netherlands Cancer Institute, Amsterdam, Netherlands) or human embryonic kidney (HEK)293 cells transfected with other transporters (Sekisui Medical Co., Ltd., Tokyo, Japan) were used. Transporter‐transfected and control cells were incubated with FFA or nFFA (0.1, 1, or 10 μM), and the amount of FFA and nFFA accumulated in the cells was measured by LC‐MS/MS as described above. The accumulation of positive control substrates in the presence and absence of an inhibitor served as a positive control for transporter function. […] BCRP substrate determination was made by bi‐directional permeability across MDCKII‐BCRP and control cells cultured on 24‐well transwell plates. Incubation medium containing probe substrate was added. Ten minutes later, transepithelial electrical resistance (TEER) was recorded and cells were preincubated at 37 ± 2°C for 30−60 min before FFA or nFFA or positive control substrate with the solvent control or positive control inhibitor was added to the donor (apical) chamber. […] Samples containing FFA, nFFA, or probe substrate were mixed with internal standard and analyzed by LC‐MS/MS. […] An aliquot was added to 96‐well plate containing scintillation fluid that was analyzed by a MicroBeta^2 scintillation counter (Perkin Elmer, Waltham, MA). Protein concentration was determined by a bicinchoninic acid (BCA) protein assay according to the manufacturer’s protocol (Thermo Fisher Scientific, Waltham, MA). Non‐radiolabeled compounds were resuspended in a 50:50 v/v methanol:water solution containing internal standard and were analyzed by LC‐MS/MS. […]

MATE2‐K = biological target: T2, MATE2‐K (Homo sapiens, UniProt Q86VL8); test: Transporter substrate determination, uptake in HEK293-MATE2K cells; type: in vitro ADME; conditions: for Maximum Ratio (uptake in transporter‐expressing cells to empty‐vector control cells): HEK293‐MATE2K, 0.1, 1, 10 µM, threshold ≥2‐fold; for substrate of the transporter: MATE2‐K
T2 construct: host or cells: HEK293
T2 sequence (Q86VL8 1-566 isoform Q86VL8-3): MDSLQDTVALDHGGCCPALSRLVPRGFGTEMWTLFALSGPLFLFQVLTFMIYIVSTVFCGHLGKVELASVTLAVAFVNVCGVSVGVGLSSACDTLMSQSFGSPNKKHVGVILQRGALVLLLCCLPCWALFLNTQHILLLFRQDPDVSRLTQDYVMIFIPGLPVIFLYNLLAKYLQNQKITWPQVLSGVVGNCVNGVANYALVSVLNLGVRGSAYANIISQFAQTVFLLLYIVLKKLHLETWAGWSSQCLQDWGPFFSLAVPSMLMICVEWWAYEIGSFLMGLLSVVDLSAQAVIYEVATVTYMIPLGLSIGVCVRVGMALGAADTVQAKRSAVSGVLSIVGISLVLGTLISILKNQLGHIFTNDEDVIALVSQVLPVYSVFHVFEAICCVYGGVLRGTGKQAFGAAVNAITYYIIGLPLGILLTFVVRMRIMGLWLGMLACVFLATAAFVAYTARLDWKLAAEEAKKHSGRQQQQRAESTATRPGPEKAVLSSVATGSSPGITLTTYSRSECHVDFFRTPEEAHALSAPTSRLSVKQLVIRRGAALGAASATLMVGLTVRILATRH
Protocol: as §1, §2

P‐gp, sequence (P08183 whole entry): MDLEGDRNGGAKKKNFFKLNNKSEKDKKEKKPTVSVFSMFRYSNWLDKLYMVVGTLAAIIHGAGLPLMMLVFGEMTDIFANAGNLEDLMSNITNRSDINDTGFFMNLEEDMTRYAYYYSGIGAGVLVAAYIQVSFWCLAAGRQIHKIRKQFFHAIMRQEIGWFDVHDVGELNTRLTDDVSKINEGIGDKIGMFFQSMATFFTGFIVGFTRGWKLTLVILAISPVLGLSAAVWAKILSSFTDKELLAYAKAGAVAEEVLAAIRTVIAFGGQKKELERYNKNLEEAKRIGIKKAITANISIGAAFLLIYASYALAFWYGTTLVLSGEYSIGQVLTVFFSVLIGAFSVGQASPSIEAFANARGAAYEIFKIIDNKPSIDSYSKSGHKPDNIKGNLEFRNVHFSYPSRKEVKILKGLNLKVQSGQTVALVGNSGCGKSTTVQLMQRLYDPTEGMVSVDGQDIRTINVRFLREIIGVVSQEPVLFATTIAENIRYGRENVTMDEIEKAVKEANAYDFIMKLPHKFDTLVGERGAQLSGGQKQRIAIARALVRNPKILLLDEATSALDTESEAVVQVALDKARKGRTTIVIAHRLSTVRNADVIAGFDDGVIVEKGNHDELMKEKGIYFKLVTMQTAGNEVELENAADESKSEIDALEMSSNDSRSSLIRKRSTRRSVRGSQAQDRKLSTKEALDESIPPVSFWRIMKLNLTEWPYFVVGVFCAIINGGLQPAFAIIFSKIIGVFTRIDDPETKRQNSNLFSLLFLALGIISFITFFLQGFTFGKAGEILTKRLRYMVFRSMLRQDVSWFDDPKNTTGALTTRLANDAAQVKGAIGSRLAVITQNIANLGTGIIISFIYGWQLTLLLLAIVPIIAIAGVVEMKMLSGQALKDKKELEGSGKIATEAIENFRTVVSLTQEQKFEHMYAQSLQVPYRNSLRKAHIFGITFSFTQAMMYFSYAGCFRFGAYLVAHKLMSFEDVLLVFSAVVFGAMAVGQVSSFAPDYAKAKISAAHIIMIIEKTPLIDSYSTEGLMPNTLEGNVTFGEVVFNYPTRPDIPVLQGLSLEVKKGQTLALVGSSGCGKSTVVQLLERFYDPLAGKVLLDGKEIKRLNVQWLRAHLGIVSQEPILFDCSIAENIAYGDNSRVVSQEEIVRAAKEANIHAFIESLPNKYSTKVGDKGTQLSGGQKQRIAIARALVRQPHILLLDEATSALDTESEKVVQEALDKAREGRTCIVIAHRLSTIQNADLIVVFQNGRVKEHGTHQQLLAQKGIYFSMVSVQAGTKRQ

SMILES	substrate of the transporter (P‐gp)	Maximum Ratio (uptake in transporter‐expressing cells to empty‐vector control cells) (MATE1)	substrate of the transporter (MATE1)	Maximum Ratio (uptake in transporter‐expressing cells to empty‐vector control cells) (MATE2‐K)	substrate of the transporter (MATE2‐K)
CCNC(C)Cc1cccc(C(F)(F)F)c1 (racemic) [FFA, (RS)‐ethyl (α‐methyl‐3‐trifluoromethylphenethyl)amine]	not substrates	1.10	not substrates	1.40	not substrates
CC(N)Cc1cccc(C(F)(F)F)c1.Cl (stereo not shown) [nFFA, 1‐(3‐(trifluoromethyl)phenyl)propan‐2‐amine hydrochloride]	not substrates	1.00	not substrates	1.50	not substrates

Source: publication PMC9124820, “In vitro evaluation of fenfluramine and norfenfluramine as victims of drug interactions” (Pharmacology Research & Perspectives, 2022)
